Key:
[1] = parameters: method as in PMID 9873685, PMID 18355003; conditions: pH 10; cited from earlier work
[2] = molecular target: Nsp15 (Severe acute respiratory syndrome coronavirus 2, UniProt P0DTD1); conditions: 1 mM ZnCl2, negative control wells
Protocol: Small molecules from a 1000-member fragment screen library (Maybridge) were transferred to the wells of 384-well plates using an Echo 550 liquid handler. Nsp15 protein in 1 × Nsp15 buffer (50 mM KCl, 20 mM HEPES pH 7.4, 5 mM MnCl2, 0.003% (v/v) Tween20) was then added using a CERTUS Flex liquid handler. After mixing, the Aurora Nsp15 sensor (in 1 × Nsp15 buffer) was added using a CERTUS Flex liquid handler. Reactions were mixed again. Final concentrations were 25 μM Aurora Nsp15 sensor, 400 nM Nsp15 protein, 1 × Nsp15 buffer (50 mM KCl, 20 mM HEPES pH 7.4 and 5 mM MnCl2), 0.003% (v/v) Tween20, and 200 μM small molecule from the fragment screen library in a volume of 20 μl. […] The reaction mixture was incubated at room temperature for 4 h, and fluorescence was measured using a Tecan Spark plate reader. Fluorescence was measured in a black flat bottom 384-well plate (Corning).
The average value of this background was subtracted from the fluorescence values obtained from all other wells. […] Activity of Nsp15 in the presence of small molecules from the fragment screen library was calculated relative to this positive control value. Z-factors ([22]) were calculated for each 384-well plate to determine the quality of the screen. […]

Row | SMILES | Brightness (ϵ × Φ) [1] | Extinction coefficient (ϵ) [1] | Maximum emission wavelength (λem) [1] | Maximum excitation wavelength (λmax) [1] | Quantum yield (Φ) [1] | inhibition of Nsp15 [2]
1 | Cc1cc(=O)oc2cc(O)ccc12 [4-MU] | 10 710 M^−1 cm^−1 | 17 000 M^−1 cm^−1 | 450 nm | 360 nm | 0.63 | –
2 | [Cl-].[Cl-].[Zn+2] [ZnCl2] | – | – | – | – | – | inhibited Nsp15

From publication PMC11347150, “Aurora: a fluorescent deoxyribozyme for high-throughput screening” (Nucleic Acids Research, 2024)
